A melting point compilation (Tetko et al.; mined from patent text by program, amines drawn as free bases though some values may be those of a salt)

Row | SMILES | melting point
1 | CN1CCN(C2=Nc3ccc(Cl)cc3S(=O)(=O)N2)CC1 | > 300 °C
2 | O=C(OC1CCN(Cc2cccc([N+](=O)[O-])c2)CC1)c1ccccc1 | 54 to 55 °C
3 | CC(C(=O)O)c1cccc2c1Oc1ccccc1CC2 (stereo unspecified) | 133 to 134 °C
4 | COc1cc(NC2=C(Cl)C(=O)c3ccccc3C2=O)ccc1S(=O)(=O)Nc1ccccc1C | 197 to 200 °C
5 | O=c1c2c(Cc3ccc(F)cc3)n[nH]c2c2cccnc2n1-c1cccc(OC(F)(F)F)c1 | 226 to 228 °C
6 | Nc1cccc(Oc2ccc(C(=O)c3ccc(C(=O)c4ccc(Oc5cccc(N)c5)cc4)cc3)cc2)c1 | 161 to 163 °C
7 | CN1CCN(C(=O)COc2cccc(CCNS(=O)(=O)c3ccc(Cl)cc3)c2)CC1 | 139 to 141 °C
8 | NC(=S)c1cccc(-c2cccc(C(N)=S)c2)c1 | 188 to 190 °C
9 | c1ccc2c(c1)NCCCO2 | 50 to 51 °C
10 | CC1NC(=S)NN=C1c1ccccc1 (stereo unspecified) | 213 to 214 °C
11 | Cc1nc(-c2ccc(Cl)cc2)n(-c2ccc(S(N)(=O)=O)cn2)n1 | 215 to 217 °C
12 | CC(C)(C)COC1CCC(=O)N1C(=O)c1ccccc1 (stereo unspecified) | 83 to 85 °C
13 | C[C@]1(COc2ccc(N3CCN(CC=Cc4ccc(Cl)c(Cl)c4)CC3)cc2)Cn2cc([N+](=O)[O-])nc2O1 | 205 to 206 °C
14 | CCC(=O)NS(=O)(=O)c1cccc(-c2cc(-c3nc(-c4ccc(C(F)(F)F)nc4)cc(C(F)(F)F)n3)ccn2)c1 | 242 °C
15 | O=C1[C@@H](N2C(=O)c3ccccc3C2=O)[C@@H](CCl)N1Cc1ccccc1 (relative stereo) | 149 °C

Continued, values first:

Row | melting point | SMILES
16 | 168 to 170 °C | CCCCc1nc(C(C)O)c(C(=O)O)n1Cc1ccc(-c2ccccc2C(=O)O)cc1 (stereo unspecified)
17 | 259 to 261 °C | C[C@@H](CO)CCn1c(C(=O)NCc2cc(C(F)(F)F)cc(C(F)(F)F)c2)c(-c2ccc(Cl)cc2)c2cccnc2c1=O
18 | 151 to 153 °C | COc1cccc(N2Sc3ccccc3CC2=O)c1OCc1ccccc1
19 | > 260 °C | COc1ccc(NC(=O)c2cnc3ccccc3c2O)cc1
20 | 86 to 90 °C | CCCc1c(OCCCOCCCOc2c(C(C)=O)ccc(OCC(=O)O)c2CCC)ccc(C(C)=O)c1O
21 | 86 °C | CC(=O)OCCOCCN1CCC(CNC(=O)[C@@H]2CCCN2S(=O)(=O)c2ccc(Cl)c(COc3cccc4c(-n5cncn5)cc(C)nc34)c2Cl)CC1
22 | 122 to 123 °C | O=C(NO)c1ccc(CNC(=O)c2[nH]c(-c3ccc(O)cc3)cc2-c2ccoc2)cc1
23 | 44 to 46 °C | CCOC(=O)C(Cc1ccc(OCCN2CCC(C)(C)c3cc(C(=NOC)c4ccccc4)ccc32)cc1)Oc1ccc(C(F)(F)F)cc1 (stereo unspecified)
24 | 131 to 134 °C | COC(=O)COc1ccc(C(=O)c2ccccc2)c(O)c1
25 | 107 to 109 °C | CCC(Oc1ccc(Cl)c(C)c1)C(=O)NCc1ccccc1Cl (stereo unspecified)
26 | 142 to 145 °C | COc1cc(OC)c(-c2cccs2)cc1/C=C/C(=O)c1ccc(S(=O)(=O)Nc2cc[nH]n2)cc1
27 | 235 to 236 °C | CSc1ccc(-c2csc(NC(C)=O)n2)cc1
28 | 222 to 224 °C | CC(C)C(=O)NCCCCn1c(CO)nc2c(N)nc3ccccc3c21
29 | 208 °C | COc1cc(N)c(Cl)cc1C(=O)N[C@H]1CCN(CCCN2C(=O)c3ccccc3C2=O)C[C@H]1OC (relative stereo)
30 | 225 to 231 °C | CC1(C)CCC(C)(C)c2cc(NCc3ccc(C(=O)O)cc3)ccc21
31 | 122 to 123 °C | COC1C=C(C)C(=O)CC(C)(C)C1OC(=O)c1ccc([N+](=O)[O-])cc1 (stereo unspecified)
32 | 212 to 214 °C | CN(C)Cc1ccnc(OCCCNc2c(N)c(=O)c2=O)c1
33 | 114 to 117 °C | COCCOc1ccc2cc3ccccc3cc2c1C=O
34 | 46 to 47 °C | CCCCCCCCCCCc1nc2c(O)c(Cl)cc(Cl)c2cc1CCCCCCCCCC
35 | 185 to 186 °C | CC(=O)c1cc(Br)cc(Cc2cc(Cl)cc(Cc3cc(Br)ccc3O)c2O)c1O
36 | 100 to 102 °C | CCOC(=O)C(=CNc1ccc(Br)cc1)C(=O)OCC
